From patent US20230014226A1, “NEW COMPOUNDS AND METHODS” (BenevolentAI Bio Limited, priority 2019, published 2023) come the findings set out here.

Entries after “also recorded” stand apart in the source; their conditions may differ.

Series [1] has as its target T1, recombinant human P450 enzyme 1A1 (Homo sapiens, UniProt P04798).
T1 construct: host or cells: Bacterial membranes (bactosomes), inferred from the named control preparation
T1 sequence (P04798 1-512): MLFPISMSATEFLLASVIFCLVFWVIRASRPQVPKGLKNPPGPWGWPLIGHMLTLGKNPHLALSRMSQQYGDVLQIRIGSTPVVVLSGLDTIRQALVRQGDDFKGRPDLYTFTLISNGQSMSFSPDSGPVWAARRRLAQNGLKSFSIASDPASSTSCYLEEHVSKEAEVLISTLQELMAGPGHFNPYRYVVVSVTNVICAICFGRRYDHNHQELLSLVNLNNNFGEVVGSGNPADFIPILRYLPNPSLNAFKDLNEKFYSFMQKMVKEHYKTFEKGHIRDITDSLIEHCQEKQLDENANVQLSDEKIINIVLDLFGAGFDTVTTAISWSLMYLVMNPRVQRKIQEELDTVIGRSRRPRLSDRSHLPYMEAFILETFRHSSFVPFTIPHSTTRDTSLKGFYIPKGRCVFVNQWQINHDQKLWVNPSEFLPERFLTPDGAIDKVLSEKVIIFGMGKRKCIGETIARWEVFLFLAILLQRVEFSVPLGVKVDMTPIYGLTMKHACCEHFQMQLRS
Briefly: Formation of reactive metabolites (glutathione adduct) by CYP1A1 with human liver cytosol. Format: in vitro ADME. The conditions noted are these: human liver cytosol + recombinant CYP1A1, NADPH and GSH. Here is the method:
Investigations into the potential for test compound to form a reactive metabolite were performed using an adapted method detailed by De Lin et al. Briefly, test compound was pre-incubated (n=2; 50 μM substrate concentration) at 37° C. for 5 min with mixed-gender human liver cytosol (1 mg/mL total protein concentration) in 100 mM phosphate buffer (pH 7.4) with 5 mM MgCl2 in the presence of recombinant human P450 enzyme 1A1 (100 nM), in the presence and absence of 5 mM glutathione. At the end of the pre-incubation period, 2 mM NADPH was added to each sample and the mixture incubated at 37° C. for 60 min. Immediately following the addition of NADPH and after the 60 min incubation period, aliquots of each sample were mixed with MeCN (containing internal standard) to terminate the reaction and precipitate the proteins.
Samples were mixed, centrifuged and following appropriate dilution, supernatants were analysed by LC-MS utilising a high-resolution mass spectrometer to perform metabolite identification and characterisation analysis.

The test system of series [2] is α-synuclein in ReNcell VM Neuronal cells. Briefly: Modulation of α-synuclein aggregation. Format: cell-based. As for the experimental part: Compounds were assessed for their ability to modulate α-synuclein aggregation. ReNcell VM Neuronal cells were transduced with α-synuclein encoded adenovirus, and compounds were added after 24 hours. After 72 hours, compound was refreshed. After an additional 72 h, cells were fixated (a total of 6 days of compound treatment). Two distinct α-synuclein antibodies were added (Syn205 and MJF-14), imaging was performed on IN Cell 2200 at 10× magnification. Immunoreactivity is quantified by a high content algorithm. Compound data is normalized to a negative control (0.1% DMSO) and a positive control (10 μM KU0063794; CAS 938440-64-3).

Series [3] relates to HUVEC (human umbilical venous endothelial cells). The series is described as follows: HUVEC Tube Formation assay. It counts as cell-based. As to conditions: 18 h incubation, read-out: Tube formation GI50. Here is the method: HUVEC (human umbilical venous endothelial cells, 1.5×10^4/well, ATCC CRL-1730) are placed in an earlier prepared 96-well plate. Test substance and/or vehicle is then added to each well in a final concentration of 0.4% DMSO in growth medium under an atmosphere of 5% CO2 at 37° C. After an 18 h incubation period, morphology of the endothelial cell tubes, which resemble a capillary-like network, are evaluated by a confocal high-content imaging system. Disruption (anti-angiogenesis) of total tube length is measured from each photograph and determined relative to the vehicle control group. […] Compounds are screened at 30, 3, 0.3, 0.03 and 0.003 μM (or μg/mL) in triplicate.

For the next series, the target named is hERG ion channel (Homo sapiens, UniProt Q12809). Briefly: hERG QPatch automated patch clamp. It counts as cell-based. As to conditions: CHO cells stably expressing hERG, QPatch 48, tail current. Here is the method:
hERG IC50 data was supplied by Metrion using their standard assay protocol briefly detailed below.
hERG ion channel screening was assayed in CHO cells stably expressing the human ether-á-go-go related gene, using the QPatch 48 automated, chip-based planar patch clamp device. A Gigaohm seal between the cell membrane and treated silicon surface was obtained and specific external and internal buffered solutions applied to cells prior to recording. Following baseline vehicle treatment, compounds were applied in increasing concentrations (8 pt CRC), effects on hERG tail current amplitudes were measured in two-minute recordings.
For orientation: hERG is a cardiac potassium channel; its block is linked to QT prolongation.

Chain of hERG ion channel (Q12809 whole entry): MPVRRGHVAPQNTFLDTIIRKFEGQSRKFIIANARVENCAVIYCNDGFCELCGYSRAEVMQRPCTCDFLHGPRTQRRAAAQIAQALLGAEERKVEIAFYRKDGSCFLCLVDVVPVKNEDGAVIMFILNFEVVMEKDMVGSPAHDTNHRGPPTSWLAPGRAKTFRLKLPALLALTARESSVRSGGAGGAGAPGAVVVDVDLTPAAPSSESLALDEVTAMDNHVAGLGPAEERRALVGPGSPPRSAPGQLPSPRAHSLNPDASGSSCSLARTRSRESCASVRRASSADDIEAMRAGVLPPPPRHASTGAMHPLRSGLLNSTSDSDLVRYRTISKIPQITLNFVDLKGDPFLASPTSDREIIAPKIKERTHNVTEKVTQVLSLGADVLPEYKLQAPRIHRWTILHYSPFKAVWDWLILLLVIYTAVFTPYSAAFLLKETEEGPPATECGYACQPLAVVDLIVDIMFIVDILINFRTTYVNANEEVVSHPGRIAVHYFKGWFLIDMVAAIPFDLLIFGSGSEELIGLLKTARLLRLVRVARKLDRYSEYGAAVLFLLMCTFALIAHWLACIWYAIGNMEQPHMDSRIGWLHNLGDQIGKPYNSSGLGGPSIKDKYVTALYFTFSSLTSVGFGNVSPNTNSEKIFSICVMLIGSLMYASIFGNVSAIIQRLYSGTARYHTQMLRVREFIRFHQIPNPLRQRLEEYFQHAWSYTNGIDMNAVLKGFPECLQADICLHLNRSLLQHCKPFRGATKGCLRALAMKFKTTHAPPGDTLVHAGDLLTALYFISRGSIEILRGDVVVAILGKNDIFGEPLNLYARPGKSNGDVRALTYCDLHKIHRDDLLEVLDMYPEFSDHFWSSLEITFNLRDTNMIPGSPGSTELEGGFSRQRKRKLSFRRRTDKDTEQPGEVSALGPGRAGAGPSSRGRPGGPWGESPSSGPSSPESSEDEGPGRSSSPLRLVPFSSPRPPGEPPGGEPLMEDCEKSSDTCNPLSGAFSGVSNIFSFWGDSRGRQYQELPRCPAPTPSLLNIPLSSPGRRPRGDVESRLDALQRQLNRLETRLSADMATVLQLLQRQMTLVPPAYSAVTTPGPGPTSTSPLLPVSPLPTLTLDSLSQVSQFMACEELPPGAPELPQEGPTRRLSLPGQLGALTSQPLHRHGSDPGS

In the case of `Cc1ccc(C(=O)Nc2cn(C(C)C)cn2)cc1C#Cc1cccnc1` [Example 25, N-(1-isopropylimidazol-4-yl)-4-methyl-3-[2-(3-pyridyl)ethynyl]benzamide], the “formation of direct glutathione adduct” value in series [1] (50 μM, 60 min) is on record as “does not form a glutathione adduct; also recorded: no products of direct glutathione conjugation were observed”. In addition, the “metabolites identified as products of oxidation and glutathione conjugation” value in series [1] is “Two very minor metabolites”. Besides, in series [2] (6 days of compound treatment, antibodies Syn205 and MJF-14), the “amount of α-synuclein present in ReNcell VM neuronal cells (FIG. 4)” value is reported as “dose dependant reduction”. The IC50 in series [2] (ReNcell VM, 100% = reduction equal to 10 μM KU0063794, 0% = 0.1% DMSO) was 1 to 10 µM; on hERG ion channel, greater than 10 µM. Further, the GI50 in series [3] is greater than 10 µM.

As a reminder, the IC50 is the concentration needed to halve the response being measured. The term GI50 denotes the concentration at which growth is held to half of that of the control.
